Test results as given in article PMC6418785, “Presenting Precision Glycomacromolecules on Gold Nanoparticles for Increased Lectin Binding” (Polymers, 2017).

Assays:
Concanavalin A (Con A) [1] = molecular target: T1, Concanavalin A (Con A) (Canavalia ensiformis, UniProt P02866); experiment: SPR inhibition competition assay, Con A binding to mannosylated sensor chip; details: for IC50: 100 nM Con A, LBB; for RIP per Carbohydrate Ligand: corrected for carbohydrate number per nanoparticle; for RIP per Glycomacromolecular Ligand: corrected for glycomacromolecule number per nanoparticle; for RIP: relative inhibitory potency based on IC50 of αMeMan on same chip (IP ≡ 1)
T1 construct: purchased LKT Laboratories (Biomol, Hamburg, Germany)
Method: As sensor chip a SA (streptavidin) chip from GE Healthcare Life Sciences was used. The positive (α-D-Mannose-PAA-biotin, flow cell 2) and negative (α-D-Galactose-PAA-biotin, flow cell 1) control for Con A binding were immobilized on the sensor chip surface using the standard biotin streptavidin capture method as adapted from previously established protocols. Therefore, a 4.2 µg/mL solution of both polymers was prepared in HBS-P+ buffer (pH 7.4, GE Healthcare, Uppsala, Sweden). The same buffer was used as running buffer in a flow rate of 10 µL/min. For immobilization, the immobilization wizard was used with a specified contact time of 420 s. Sodium chloride, sodium hydroxide and isopropanol solutions were prepared as specified by the manufacturer. […] After approximately 500 measurement cycles, a new SA (streptavidin) chip was used for further measurements. For immobilization, the same procedure was used as described above.
SPR inhibition competition studies were performed using the wizard template kinetics/affinity with contact times of 105 s and dissociation times of 180 s. Before the run, the system was primed with LBB (pH 7.40 ± 0.01, 10 mM Hepes, 50 mM NaCl, 1 mM CaCl2, 1 mM MnCl2) which was used as running buffer and two startup cycles were performed. The experiment was performed in multi cycle mode. For all experiments a 1 mg/mL stock solution of Con A was prepared in LBB and was shaken for 1 h. Then it was filtrated (Acrodisc® 32 mm syringe filter with a 0.1 µm Supor® membrane from Pall Corporation, Newquay, UK) and the concentration was determined spectrophotometrically. The stock solution was diluted to give a 200 nM solution of Con A. Glyco-AuNP solutions were concentrated by centrifugation (Allegra^TM 25R Centrifuge, Beckman Coulter, Brea, CA, USA, 12 h, 4500 rcf) and were resuspended in LBB to give a 20 nM stock solution. The concentration was verified by UV measurement. This glyco-AuNP stock solution was then used to prepare the dilution series in LBB. […] For N-ethylmaleimide capped glycomacromolecule 1a a dilution series with concentrations of 0, 1, 10, 20, 50, 100, 200, 500, 1000 µM and 3a a dilution series with concentrations of 0, 2, 20, 100, 200, 500, 1000, 1500, 2000 nM was prepared. For αMeMan a dilution series with concentrations of 0, 10, 100, 500, 1000, 1500, 2000, 5000 µM was prepared. As negative control, four representative concentrations of 0, 10, 1500 and 5000 µM were prepared for D-(+)-galactose.
For the experiment Con A and sample solutions were mixed in a 1:1 ratio to give half of the prepared concentrations. Each mixture was injected over both flow cells whereas the binding signal on flow cell 1 was subtracted from the response on flow cell 2. As regeneration procedure three consecutive injections of a 0.8 M solution of αMeMan in LBB with a contact time of 30 s was used. The relative response value at the beginning of the dissociation phase (20 s after the end of sample injection) for the 100 nM Con A solution with zero sample concentration was set to 100% binding. The relative response values of the Con A solutions incubated with the respective sample in serial dilutions were referred to Con A and calculated for relative binding in %. IC50 values were calculated as concentration of the sample that result in 50% inhibition of Con A binding to the mannosylated sensor chip surface. RIP (relative inhibitory potency) values are based on the IC50 value for αMeMan (IP (inhibitory potency) ≡ 1). All glyco-AuNPs, glycomacromolecules and αMeMan have been tested in three independent experiments (triplicate determination per experiment for αMeMan and glyco-AuNPs, dublicate determination per experiment for glycomacromolecules 1a and 3a).

Concanavalin A (Con A) [2] = molecular target: T1, Concanavalin A (Con A); experiment: Kinetic study of aggregation behavior with Con A by DLS and UV-Vis spectroscopy; format: binding; details: αMeMan 60 mM added to wells or DLS cuvettes
Method: For the kinetic study of aggregation behavior with Con A performed by DLS and UV-Vis spectroscopy, a similar procedure as described by the group of Gibson was performed [41, 42].
For the kinetic studies using absorbance spectroscopy (Thermo Scientific, Vantaa, Finland), the stock solutions were mixed in wells of a 96-well microtiter-plate (100 µL of each solution per well). The absorbance at 400 and 700 nm was measured every minute for 30 min.
For the kinetic studies using DLS, the stock solutions were filtrated twice (Roth, Rotilabo® syringe filter, Karlsruhe, Germany, PTFE, 5.0 µm) and were pre-tempered to 20 °C. Then 750 µL of each stock solution were filled into the culture tubes and mixed. DLS measurements were performed at 20 °C and at a scattering angle of 90°. Every minute an intensity-time autocorrelation function was recorded with an acquisition time of 30 s during a period of 30 min.

[3] = SA sensor chip used for 1a and 3a (footnote 1)

| Molecule | inhibition of Con A binding (Concanavalin A (Con A) [1]; negative control, four representative concentrations) | IC50 (Concanavalin A (Con A) [1]; [3]) [µM] | IC50 (Concanavalin A (Con A) [1]; SA sensor chip with αMeMan IC50 (5.17 ± 0.84) × 10^5 nM) [µM] | RIP per Carbohydrate Ligand (Concanavalin A (Con A) [1]) | RIP per Glycomacromolecular Ligand (Concanavalin A (Con A) [1]) | RIP (Concanavalin A (Con A) [1]) | redispersion of Con A induced glyco-AuNP aggregates (Concanavalin A (Con A) [2]) |
| --- | --- | --- | --- | --- | --- | --- | --- |
| OC[C@H]1OC(O)[C@H](O)[C@@H](O)[C@H]1O (stereo partly drawn) [D-(+)-galactose] | no inhibition |  |  |  |  |  |  |
| CO[C@H]1O[C@H](CO)[C@@H](O)[C@H](O)[C@@H]1O [αMeMan, methyl-α-D-mannopyranoside] |  | 325 | 517 | 1 | 1 | 1 | redispersion of the aggregates |
| Man(2)-5-Gly(1)-EDS(3,4)-Cys(5)-N-ethylmaleimide [glycomacromolecule 1a] |  | 70 |  | 5 | 5 | 5 |  |
| Man(2,4,6,8,10)-11-Gly(1)-EDS(3,5,7,9)-Cys(11)-N-ethylmaleimide [glycomacromolecule 3a] |  |  |  | 419 | 2096 | 2096 |  |
